Assay results: PMC11434868, “Synthesis and Antiproliferative Effect of 3,4,5-Trimethoxylated Chalcones on Colorectal and Prostatic Cancer Cells” (Pharmaceuticals, 2024)
Blank lines part the entries; values can stand above or below the compound they belong to.

Experiments:
[1] = system: caspase-3 and PARP in PC3 cells; experiment: Western blot of apoptosis-related proteins in PC3; type: cell-based, human; conditions: PC3, 48 h;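 also: compared with untreated control cells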
Experimental: For total protein extraction, collected samples of each condition were washed in PBS. Then, the total cell pool was centrifuged at 200 g for 5 min at 4 °C and homogenized in RIPA lysis buffer (50 mM HEPES, pH 7.5, 150 mM NaCl, 1% sodium deoxycholate, 1% NP-40, 0.1% SDS, […] of aprotinin) containing protease inhibitors according to the manufacturer’s instructions. After quantification of protein levels using the Bradford method, proteins ([…]) were separated on 12.5% SDS-PAGE gels and transferred to PVDF membranes (GE Healthcare Life Science—Fisher Scientific). Membranes were probed with respective antibodies against human caspase-3, cleaved caspase-3, and PARP according to the manufacturer’s instructions. After incubation with appropriate secondary antibodies, blots were developed using the “ImmobilonWestern” substrate, following the manufacturer’s protocol, and G:BOX system (Syngene, Cambridge, UK). Membranes were then reblotted with human anti-β-actin used as a loading control.

[2] = system: human PCa (DU145 and PC3) cell lines; experiment: MTT assay, summary statements for PCa cells; type: cell-based; conditions: Homo sapiens, DU-145, DU145 and PC3, text summary; read-out: IC50 towards PCa cells
Experimental: Human CRC (HCT116 and HT-29) and PCa (DU145 and PC3) cell lines were purchased from the American Type Culture Collection (ATCC—LGC Standards, Molsheim, France). All cells were grown in RPMI 1640 medium supplemented with 10% FBS, 1% L-glutamine, 100 U/mL penicillin, and 100 μg/mL streptomycin. Cultures were maintained in a humidified atmosphere containing 5% CO2 at 37 °C. Cells were seeded in 75 cm^2 culture flasks at 1.2 × 10^4 cells/cm^2 for HCT116, DU145, and PC3 cells, and 2.0 × 10^4 for HT-29 cells. Cells were grown for 24 h in culture medium prior to exposure or not to obtain the synthesized compounds. Stock solutions (10^−2 M in DMSO) of each compound were diluted in culture medium to obtain appropriate final concentrations.
• (a) MTT assay: The antiproliferative effect of all compounds was determined using MTT assay (a metabolic activity test). Briefly, cells were seeded in 96-well culture plates at 4 × 10^3 cells/well for HCT116, PC3, and DU145 cells and 6 × 10^3 cells/well for HT-29 cells (100 µL/well), and grown for 24 h in culture medium prior to exposure or not to obtain compounds 1–15 with concentrations ranging from 5 nM to 50 μM. After 24 and 48 h of treatment, MTT (5 mg/mL in PBS) was added and incubated for another 3 h. MTT was then removed from the wells before adding 100 μL/well of DMSO. The optical density was detected with a microplate reader (Multiskan FC, Thermoscientific, Bordeaux, France) at 550 nm and cell viability was expressed as a percentage of each treatment condition compared to control cells. IC50 values were calculated for all compounds from the dose–response curve. Data are expressed as the arithmetic means ± standard error of the mean (SEM) of separate experiments. All experiments were performed at least in triplicate. • (b) Trypan blue dye exclusion method: Cells were grown for 24 h then treated with compounds 10 and 13 at indicated concentrations. After 48 h of treatment, cells were trypsinized and resuspended in complete medium. Each sample was mixed with Trypan blue solution (0.14% in HBSS, Invitrogen-GIBCO, ThermoFisher, Illkirch, France). Colored (non-viable) and dye-excluding (viable) cells were counted with the LUNA-II automated cell Counter (Logos Biosystems; MC2, Aubière, France). The control was normalized to 100% including viable and dead cells. The results indicated on the histograms were expressed as the percentage of cells compared to the control. IC50 values were determined from the percentages of viable cells compared to the control.

- IC50 [2]: 17 to 31 nM
Compound: COc1cc(C(=O)/C=C/c2c[nH]c3ccccc23)cc(OC)c1OC [chalcone 10, (E)-3-(1H-indol-3-yl)-1-(3,4,5-trimethoxyphenyl)prop-2-en-1-one]
- PARP cleavage (89 kDa fragment) [1]: induced PARP cleavage
- cleaved caspase-3 [1]: clearly observed
- native PARP expression [1]: strong decreased expression
- pro-caspase-3 expression [1]: decreased

Compound: COc1cc(C(=O)/C=C/c2coc3ccc(C)cc3c2=O)cc(OC)c1OC [chalcone 13, (E)-6-methyl-3-(3-oxo-3-(3,4,5-trimethoxyphenyl)prop-1-en-1-yl)-4H-chromen-4-one]
- PARP cleavage (89 kDa fragment) [1]: clearly observed
- cleaved caspase-3 [1]: clearly observed
- native PARP expression [1]: strong decreased expression
- pro-caspase-3 expression [1]: decreased
